Results as given in patent publication US4656142A, “Organometallic complexes of estrogens and their application to the determination of hormone receptors” (Centre National de la Recherche Scientifique, priority 1982, dated 1987).

Molecular target: T1, estradiol receptor (Homo sapiens, UniProt P03372)
T1 construct: from tissue; host or cells: ewe uterine cytosol (inferred from the sister test)
Experiment: ability to compete with estradiol for the receptor (log/logit curves, Rao et al.); relative binding affinity
Conditions: competition with estradiol, estradiol = 100
Excerpt: It must be point out that the further the RBA value (relative binding affinity) is from 100, the lower the competitiveness of the steroid tested.

T1 sequence (P03372 whole entry): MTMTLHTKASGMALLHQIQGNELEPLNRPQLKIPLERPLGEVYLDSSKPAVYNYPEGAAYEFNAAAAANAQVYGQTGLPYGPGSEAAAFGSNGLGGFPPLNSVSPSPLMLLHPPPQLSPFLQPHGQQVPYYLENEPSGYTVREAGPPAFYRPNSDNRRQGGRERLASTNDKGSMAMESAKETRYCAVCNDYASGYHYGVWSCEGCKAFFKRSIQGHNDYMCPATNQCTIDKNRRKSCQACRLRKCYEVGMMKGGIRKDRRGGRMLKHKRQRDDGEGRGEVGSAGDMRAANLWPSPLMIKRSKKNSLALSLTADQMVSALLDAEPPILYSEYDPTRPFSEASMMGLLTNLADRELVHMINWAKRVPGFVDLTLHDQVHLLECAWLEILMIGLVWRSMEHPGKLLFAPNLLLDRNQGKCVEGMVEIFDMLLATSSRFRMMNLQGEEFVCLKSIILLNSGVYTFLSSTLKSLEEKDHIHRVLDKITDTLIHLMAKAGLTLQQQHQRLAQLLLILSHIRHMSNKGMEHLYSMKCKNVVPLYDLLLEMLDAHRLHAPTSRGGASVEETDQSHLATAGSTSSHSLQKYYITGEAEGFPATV

## CC(C)(C)[Si](C)(C)Oc1ccc2c(c1)CC[C@@H]1[C@@H]2CC[C@]2(C)[C@@H](O)CC[C@@H]12 [Compound 1, monosilylated β-estradiol]
  RBA (%) (relative binding affinity): 11%
